“Also recorded” adds a separate entry of the source. Read-outs that look alike come from different tables or passages of the source.
Key:
[1] = Plasma pharmacokinetics of BIBF 1120 (HPLC-MS/MS); assay type: in vivo, human; details: for Cmax / AUC(0-t) / half-life / Tmax: human, plasma, po, 250 mg; for Cmax: read-out: Cmax, gMean (gCV%); for AUC(0-t): read-out: AUC0−24, gMean (gCV%); for half-life: read-out: t1/2, gMean (gCV%) (converted); for Tmax: read-out: tmax, median and range
Experimental: Plasma concentrations of BIBF 1120 and docetaxel were analysed by a validated method using high-performance liquid chromatography coupled with tandem mass spectrometry (HPLC-MS/MS) in the Department of Drug Metabolism and Pharmacokinetics (Boehringer Ingelheim Pharma GmbH & Co KG, Biberach, Germany). The assay comprises sample clean-up by automated solid-phase extraction in a 96-well plate format. Chromatography was achieved on an analytical C18 reversed phase HPLC column with gradient elution. The substance was detected and quantified by HPLC-MS/MS using electrospray ionisation in the positive ion mode. Docetaxel was analysed by HPLC-MS/MS using paclitaxel as an internal standard. The assay comprises sample clean-up by liquid–liquid extraction and chromatography on an analytical C18 reversed phase HPLC column with isocratic elution. […] For docetaxel, the lower limit was 2.5 ng ml^−1 plasma, using a plasma volume of 100 μl. The calculated parameters were plasmatic peak concentrations following the first dose (Cmax), half-life time (t1/2), area under the plasma concentration–time curve (AUCt), apparent clearance after oral administration, and apparent volume of distribution during the terminal phase.

[2] = system: metastatic hormone-refractory prostate cancer (HRPC); test: Evaluation of response (PSA decline, RECIST); assay type: in vivo, human
Experimental: All patients who received at least one dose of BIBF 1120 or docetaxel were assessed during the safety analysis. Intensity of AEs was graded according to Common Terminology Criteria for Adverse Events (CTCAE) version 3.0. Objective response was defined as a PSA decline ⩾50% from the baseline value over two consecutive courses and/or tumour response according to RECIST criteria ([Therasse et al, 2000]).

[3] = system: advanced lung cancer patients; parameters: method as in Reck et al, 2011; details: phase II, ref Reck et al, 2011, cited from earlier work
[4] = oral 250 mg BID, day 2 of treatment cycle 2, with docetaxel
[5] = male, oral 250 mg BID, day 2 of treatment cycle 1
[6] = male, oral 250 mg BID, treatment cycle 2

SMILES: COC(=O)c1ccc2c(c1)NC(=O)/C2=C(\Nc1ccc(N(C)C(=O)CN2CCN(C)CC2)cc1)c1ccccc1 [BIBF 1120]
- Exposure with increasing doses ([1]; 100–250 mg BID): dose-dependent increase in exposure
- Time to reach steady state ([1]; BIBF 1120 BID dosing): 7 days
- PK interaction between BIBF 1120 and docetaxel/prednisone ([1]; combination therapy): no interactions; also recorded: no hint for PK interaction; also recorded: no indication of PK interaction
- Cmax [1, 4]: 45.9 ng/mL
- AUC(0-t) [1, 5]: 454 ng·h/mL
- half-life [1, 5]: 7.03 h
- Cmax ([1]; male, oral 250 mg BID, day 2 of treatment cycle 1, with docetaxel): 65 ng/mL
- half-life ([1]; male, oral 250 mg BID, day 2 of treatment cycle 2): 15.4 h
- Tmax ([1]; male, oral 250 mg BID, treatment cycle 1): 3 h
- AUC(0-t) [1, 6]: 410 ng·h/mL
- Tmax [1, 6]: 2.08 h
- Cmax, gMean (gCV%) [1, 4]: 45.8 (98.5) ng ml^−1
- Estimated progression-free survival rate at 24 weeks ([2]; 250 mg BID + docetaxel/prednisone): 56%
- Patients with ⩾50% reduction in PSA levels from baseline (PSA response) ([2]; 19 assessable patients, BIBF 1120 + docetaxel/prednisone): 68.4%
- Patients with disease response (PSA and/or RECIST) ([2]; 19 evaluable patients, BIBF 1120 100–250 mg BID + docetaxel/prednisone): 73.7%
- Patients with complete biological response with normalisation of PSA ([2]; BIBF 1120 + docetaxel/prednisone): 33.3%
- Frequency of CTCAE grade 3/4 liver enzyme elevations ([3]; 250 mg BID monotherapy): ~20%
- Frequency of CTCAE grade 3/4 liver enzyme elevations ([3]; 150-mg BID monotherapy): none

Reference: PMC3242598, “Phase I study of BIBF 1120 with docetaxel and prednisone in metastatic chemo-naive hormone-refractory prostate cancer patients” (British Journal of Cancer, 2011)
